Experiments:
Tie2 [1] = biological target: T1, Tie2 (Homo sapiens, UniProt Q02763); set-up: expressed in transfected cells; host or cells: CHO (CHO Tie2/DHFR); conditions: more potent against other kinases than against Tie2; cited from earlier work
Target sequence in this assay (Q02763 23-1124, species assumed): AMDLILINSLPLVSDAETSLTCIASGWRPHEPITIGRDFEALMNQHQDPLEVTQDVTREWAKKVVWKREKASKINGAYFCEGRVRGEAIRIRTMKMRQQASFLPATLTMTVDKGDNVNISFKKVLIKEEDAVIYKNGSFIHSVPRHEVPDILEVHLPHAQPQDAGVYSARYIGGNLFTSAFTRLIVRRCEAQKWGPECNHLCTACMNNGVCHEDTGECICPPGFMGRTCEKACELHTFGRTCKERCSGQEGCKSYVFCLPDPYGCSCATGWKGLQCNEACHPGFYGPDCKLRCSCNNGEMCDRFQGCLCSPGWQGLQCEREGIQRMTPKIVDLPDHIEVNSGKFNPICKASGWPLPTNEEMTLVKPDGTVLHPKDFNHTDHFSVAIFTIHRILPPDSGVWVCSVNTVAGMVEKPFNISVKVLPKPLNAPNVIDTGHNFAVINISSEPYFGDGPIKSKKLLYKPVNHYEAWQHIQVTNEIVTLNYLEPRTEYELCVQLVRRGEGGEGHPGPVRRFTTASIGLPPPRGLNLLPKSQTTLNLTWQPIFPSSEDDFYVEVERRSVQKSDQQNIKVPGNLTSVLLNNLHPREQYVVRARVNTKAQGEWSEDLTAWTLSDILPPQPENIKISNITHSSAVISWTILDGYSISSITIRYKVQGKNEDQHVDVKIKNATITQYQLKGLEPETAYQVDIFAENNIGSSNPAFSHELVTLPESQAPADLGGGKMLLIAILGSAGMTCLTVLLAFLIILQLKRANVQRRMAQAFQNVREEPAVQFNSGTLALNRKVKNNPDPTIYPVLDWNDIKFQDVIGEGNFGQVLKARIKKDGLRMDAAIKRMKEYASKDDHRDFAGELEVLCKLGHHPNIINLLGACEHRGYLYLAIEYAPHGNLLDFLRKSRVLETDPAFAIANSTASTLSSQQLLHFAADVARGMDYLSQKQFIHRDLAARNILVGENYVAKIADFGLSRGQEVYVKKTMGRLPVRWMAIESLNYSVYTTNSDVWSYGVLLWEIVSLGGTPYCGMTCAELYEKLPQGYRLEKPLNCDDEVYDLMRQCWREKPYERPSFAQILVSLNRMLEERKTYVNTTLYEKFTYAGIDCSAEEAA

Tie2 [2] = biological target: T1, Tie2; set-up: expressed in transfected cells; host or cells: CHO (CHO Tie2/DHFR); conditions: Albert et al. Mol. Cancer. Ther. 2006, 5, 995; cited from earlier work
Target sequence in this assay (Q02763 23-1124, species assumed): as above

Tie2 [3] = biological target: T1, Tie2; test: Tie2 ELISA assay (cellular Tie2 autophosphorylation); format: cell-based; set-up: expressed in transfected cells; host or cells: CHO (CHO Tie2/DHFR); conditions: CHO cells stably transfected with Tie2, stimulated by angiopoietin-2; Tie2 autophosphorylation by sandwich-ELISA; read-out: Tie 2 activity (assay 1)
Method: Cellular activity of compounds of the present invention as inhibitors of Tie2 kinase activity was measured employing a Tie2 ELISA assay as described in the following paragraphs. Herein CHO cell-cultures, which are stably transfected by known techniques with Tie2 using DHFR deficiency as selection marker, are stimulated by angiopoietin-2. The specific autophosphorylation of Tie2 receptors is quantified with a sandwich-ELISA using anti-Tie2 antibodies for catch and anti-phosphotyrosine antibodies coupled to HRP for detection.
• 96 well tissue culture plate, sterile, Greiner • 96 well FluoroNunc plate MaxiSorp Surface C, Nunc • 96 well plate polypropylene for compound dilution in DMSO • CHO Tie2/DHFR (transfected cells) • PBS−; PBS++, DMSO • MEM alpha Medium with Glutamax-I without Ribonucleosides and Deoxyribonucleosides (Gibco #32561-029) • with 10% FCS after dialysis! and 1% PenStrep • Lysis buffer: 1 Tablet “Complete” protease inhibitor • 1 cap Vanadate (1 mL>40 mg/mL; working solution 2 mM) • ad 50 mL with Duschl-Puffer • pH 7.6 • Anti-Tie2-antibody 1:425 in Coating Buffer pH 9.6 • Stock solution: 1.275 mg/mL>working.: 3 μg/mL • PBST: 2 bottles PBS (10×)+10 ml Tween, fill up with VE-water • RotiBlock 1:10 in VE-water • Anti-Phosphotyrosine HRP-Conjugated 1:10000 in 3% TopBlock • 3% TopBlock in PBST • BM Chemiluminescence ELISA Substrate (POD) • solution B 1:100 solution A • SF9 cell culture medium • Ang2-Fc in SF9 cell culture medium
• Dispense 5×10^4 cells/well/98 μL in 96 well tissue culture plate • Incubate at 37° C./5% CO2 • After 24 h add compounds according to desired concentrations • Add also to control and stimulated values without compounds 2 μL DMSO • And mix for a few min at room temperature • Add 100 μL Ang2-Fc to all wells except control, which receives insect medium • Incubate 20 min at 37° C. • Wash 3× with PBS++ • Add 100 μl Lysis buffer/well and shake a couple of min at room temperature • Store lysates at […] before utilizing for the ELISA
• Coat 96 well FluoroNunc Plate MaxiSorp Surface C with anti-Tie2 mAb 1:425 in Coating buffer pH 9.6; 100 μL/well overnight at 4° C. • Wash 2× with PBST • Block plates with 250 μL/well RotiBlock 1:10 in VE-water • Incubate for 2 h at room temperature or overnight at 4° C. shaking • Wash 2× in PBST • Add thawed lysates to wells and incubate overnight shaking at 4° C. • Wash 2× with PBST • Add 100 μL/well anti-Phosphotyrosine HRP-Conjugated 1:10000 in 3% TopBlock (3% TopBlock in PBST) and incubate overnight under shaking • Wash 6× with PBST • Add 100 μL/well BM Chemiluminescence ELISA Substrate (POD) solutions 1 und 2 (1:100) • Determine luminescence with the LumiCount. Assay 2: Tie-2-Kinase HTRF-Assay without Kinase Preactivation
Target sequence in this assay (Q02763 23-1124, species assumed): as above

Tie2 [4] = biological target: T1, Tie2; test: Tie-2-Kinase HTRF-Assay without kinase preactivation; format: biochemical; set-up: fusion protein of GST and the intracellular domains of Tie-2; GST; made in house; host or cells: insect cells (Hi-5); conditions: GST-Tie-2 intracellular domains, 10 μM ATP
Text: Tie2-inhibitory activity of compounds of the present invention was quantified employing two Tie2 HTRF assay as described in the following paragraphs.
A recombinant fusion protein of GST and the intracellular domains of Tie-2, expressed in insect cells (Hi-5) and purified by Glutathion-Sepharose affinity chromatography was used as kinase. Alternatively, commercially available GST-Tie2-fusion protein (Upstate Biotechnology, Dundee, Scotland) can be used As substrate for the kinase reaction the biotinylated peptide biotin-Ahx-EPKDDAYPLYSDFG (C-terminus in amid form) was used which can be purchased e.g. from the company Biosynthan GmbH (Berlin-Buch, Germany). Detection of phosphorylated product is achieved specifically by a trimeric detection complex consisting of the phosphorylated substrate, streptavidin-XLent (SA-XLent) which binds to biotin, and Europium Cryptate-labeled anti-phosphotyrosine antibody PT66 which binds to phosphorylated tyrosine.
Tie-2 (3.5 ng/measurement point) was incubated for 60 min at 22° C. in the presence of 10 μM adenosine-tri-phosphate (ATP) and 1 μM substrate peptide (biotin-Ahx-EPKDDAYPLYSDFG-NH2) with different concentrations of test compounds (0 μM and concentrations in the range 0.001-20 μM) in 5 μl assay buffer [50 mM Hepes/NaOH pH 7, 10 mM MgCl2, 0.5 mM MnCl2, 1.0 mM dithiothreitol, 0.01% NP40, protease inhibitor mixture (“Complete w/o EDTA” from Roche, 1 tablet per 2.5 ml), 1% (v/v) dimethylsulfoxide]. The reaction was stopped by the addition of 5 μl of an aqueous buffer (25 mM Hepes/NaOH pH 7.5, 0.28% (w/v) bovine serum albumin) containing EDTA (90 mM) and the HTRF (Homogeneous Time Resolved Fluorescence) detection reagents streptavidine-XLent (0.2 μM, from Cis Biointernational, Marcoule, France) and PT66-Eu-Chelate (0.3 ng/μl; a europium-chelate labelled anti-phospho-tyrosine antibody from Perkin Elmer).
The resulting mixture was incubated 1 h at 22° C. to allow the binding of the biotinylated phosphorylated peptide to the streptavidine-XLent and the PT66-Eu-Chelate. Subsequently the amount of phosphorylated substrate peptide was evaluated by measurement of the resonance energy transfer from the PT66-Eu-Chelate to the streptavidine-XLent. Therefore, the fluorescence emissions at 620 nm and 665 nm after excitation at 350 nm was measured in a HTRF reader, e.g. a Rubystar (BMG Labtechnologies, Offenburg, Germany) or a Viewlux (Perkin-Elmer). The ratio of the emissions at 665 nm and at […] was taken as the measure for the amount of phosphorylated substrate peptide. The data were normalised (enzyme reaction without inhibitor=0% inhibition, all other assay components but no enzyme=100% inhibition) and IC50 values were calculated by a 4 parameter fit using an inhouse software.
Target sequence in this assay (Q02763 770-1124 limits assumed, species assumed): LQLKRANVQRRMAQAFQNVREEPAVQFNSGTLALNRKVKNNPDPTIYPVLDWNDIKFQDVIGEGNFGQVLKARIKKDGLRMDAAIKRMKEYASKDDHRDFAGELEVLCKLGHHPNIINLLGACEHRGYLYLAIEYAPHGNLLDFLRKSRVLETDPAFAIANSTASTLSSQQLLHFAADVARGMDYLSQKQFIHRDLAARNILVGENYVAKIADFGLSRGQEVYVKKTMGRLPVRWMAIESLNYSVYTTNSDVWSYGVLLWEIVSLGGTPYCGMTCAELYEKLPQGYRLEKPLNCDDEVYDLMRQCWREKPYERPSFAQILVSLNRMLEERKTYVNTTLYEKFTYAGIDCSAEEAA

SMILES: Cc1ccc(F)c(NC(=O)Nc2ccc(-c3cccc4[nH]nc(N)c34)cc2)c1 [Abt-869]
- potency against at least 5 other kinase targets relative to Tie2 (Tie2 [1]): > 10 times
- activity as inhibitor of cellular Tie2 autophosphorylation (Tie2 [2]): only modest activity

SMILES: Cn1ncc2c(-c3ccc(NC(=O)Nc4ccc(CN5CCN(CC6CC6)CC5)c(C(F)(F)F)c4)cc3)cncc21 [Example 13.26, 1-[4-(4-Cyclopropylmethyl-piperazin-1-ylmethyl)-3-trifluoromethyl-phenyl]-3-[4-(1-methyl-1H-pyrazolo[3,4-c]pyridin-4-yl)-phenyl]-urea]
- IC50 (Tie2 [3]): < 501 nM
- IC50 (Tie2 [4]): < 501 nM

From patent publication US20090062273A1, “3-H-pyrazolopyridines and salts thereof, pharmaceutical compositions comprising same, methods of preparing same and uses of same” (priority 2006, published 2009)
